Assay results published in article PMC8698932 (2021).

How the values were obtained:
[1] = test system: 22nt (DNA, i motif) CCCTAACCCTAACCCTAACCCT; assay: 1H NMR titration (imino protons); conditions: Na+ (sodium phosphate); pH 5.0, 25 °C; only small insignificant imino changes
[2] = test system: nmyc01 (DNA, i motif) ACCCCCTGCATCTGCATGCCCCCTCCCACCCCCT; assay: CD melting, 287 nm; conditions: Na+ (0.2 M CH3COONa); acetate pH 5; 2 µM DNA, 8 µM compound
[3] = test system: nmyc01m (DNA, i motif) ACCCCCTGCATCTTTTTGCCCCCTCCCACCCCCT; assay: fluorescence titration (alkaloid quenching); conditions: 5 mM KCl; acetate 10 mM pH 5; overall constant of the 1:5 DNA:ligand model, not per site; non-specific binding possible
[4] = test system: nmyc01 (DNA, i motif) ACCCCCTGCATCTGCATGCCCCCTCCCACCCCCT; assay: 1H NMR titration (imino protons); conditions: Na+ (sodium phosphate); pH 5.0, 25 °C; hairpin Watson-Crick signals disappear at R = 0.25
[5] = test system: ckit21T12T21 (DNA, G4) CGGGCGGGCGCTAGGGAGGGT; assay: 1H NMR titration (imino and aromatic protons); conditions: 20 mM KCl; 5 mM KH2PO4 pH 6.9, 25 °C; stacks over external tetrads
[6] = test system: nmyc01m (DNA, i motif) ACCCCCTGCATCTTTTTGCCCCCTCCCACCCCCT; assay: 1H NMR titration (imino protons); conditions: Na+ (sodium phosphate); pH 5.0, 25 °C; no change in imino resonances
[7] = test system: GG1 (DNA, G4) GGGCGGGCGCGAGGGAGGGT; assay: fluorescence titration (alkaloid quenching); conditions: 5 mM KCl; phosphate 10 mM pH 7; overall constant of the 1:5 DNA:ligand model, not per site; non-specific binding possible
[8] = test system: DL40 (DNA, G4) GGTTTTGGCAGGGTTTTGGT; assay: CD melting, 291 nm; conditions: 5 mM KCl; 10 mM KH2PO4 pH 7; 2 µM DNA, 8 µM compound
[9] = test system: nmyc01 (DNA, i motif) ACCCCCTGCATCTGCATGCCCCCTCCCACCCCCT; assay: fluorescence titration (alkaloid quenching); conditions: 5 mM KCl; acetate 10 mM pH 5; overall constant of the 1:4 DNA:ligand model, not per site; non-specific binding possible
[10] = test system: nmyc01m (DNA, i motif) ACCCCCTGCATCTTTTTGCCCCCTCCCACCCCCT; assay: CD melting, 287 nm; conditions: Na+ (0.2 M CH3COONa); acetate pH 5; 2 µM DNA, 8 µM compound
[11] = test system: DL40 (DNA, G4) GGTTTTGGCAGGGTTTTGGT; assay: fluorescence titration (alkaloid quenching); conditions: 5 mM KCl; phosphate 10 mM pH 7; overall constant of the 1:4 DNA:ligand model, not per site; non-specific binding possible
[12] = test system: 22nt (DNA, i motif) CCCTAACCCTAACCCTAACCCT; assay: fluorescence titration (alkaloid quenching); conditions: 5 mM KCl; acetate 10 mM pH 5; overall constant of the 1:4 DNA:ligand model, not per site; non-specific binding possible
[13] = test system: 22nt (DNA, i motif) CCCTAACCCTAACCCTAACCCT; assay: CD melting, 287 nm; conditions: Na+ (0.2 M CH3COONa); acetate pH 5; 2 µM DNA, 8 µM compound
[14] = test system: DL40 (DNA, G4) GGTTTTGGCAGGGTTTTGGT; assay: 1H NMR titration (imino and aromatic protons); conditions: 150 mM NaCl; sodium phosphate pH 6.8, 25 °C; new imino signals, single conformation at R ≥ 1.0
[15] = test system: GG1 (DNA, G4) GGGCGGGCGCGAGGGAGGGT; assay: CD melting, 261 nm; conditions: 5 mM KCl; 10 mM KH2PO4 pH 7; 2 µM DNA, 8 µM compound

- binding [1]: no
- ΔTm [2]: −0.3 °C
- Log Ka [3]: 22.61 ± 0.08
- binding [4]: weak
- binding [5]: yes
- binding [6]: no
- Log Ka [7]: 22.39 ± 0.03
- ΔTm [8]: 5.2 °C
- Log Ka [9]: 18.21 ± 0.17
- ΔTm [10]: −0.6 °C
- Log Ka [11]: 18.46 ± 0.05
- Log Ka [12]: 17.64 ± 0.12
- ΔTm [13]: 0.7 °C
- binding [14]: yes
- ΔTm [15]: 1.7 °C
SMILES: COc1ccc2c(c1O)C[N+]1(C)CCc3cc4c(cc3C1C2)OCO4 (stereo not drawn)
